# Data: publication PMC11714206, “Massively Parallel Screening of Toll/Interleukin‐1 Receptor (TIR)‐Derived Peptides Reveals Multiple Toll‐Like Receptors (TLRs)‐Targeting Immunomodulatory Peptides” (Advanced Science, 2024)
# Biological target: T1, MAL^TIR (Homo sapiens, UniProt P58753)
# T1 construct: MAL (residues 79–221); 6xHis; made in house; host or cells: E. coli BL21 (DE3)
# Test: T‐Surf phage library (P8 and P3) selection against MAL^TIR, four rounds, NGS read counts
# Type: binding
# Settings: for P3_MAL Rank (after) / P3_MAL Rank (before): P3 library; for Population: 4th round of selection against MAL TIR, share of NGS reads; for P8_MAL Rank (after) / P8_MAL Rank (before): P8 library
# Procedure, shortened: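 Read counts come from NGS of phage pools after the fourth selection round, barcoded by 20-cycle PCR and filtered for quality ≥30. Each round: phage incubated 1 h at RT on immobilised TIR protein (5 µg mL^−1, BSA-blocked), washed, HCl-eluted and amplified in E. coli TG1.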
# [1] = P3_MAL: rank by count after grouping
# [2] = P3_MAL: rank by count before grouping
# [3] = selection against MAL, rank after grouping
# [4] = selection against MAL, rank before grouping
# [5] = P3_MAL pool: P3 T-Surf phage library
# [6] = selection against MAL TIR, rank by count after grouping
# [7] = selection against MAL TIR, rank by count before grouping
# [8] = selection against MAL, rank by count after grouping
# [9] = selection against MAL, rank by count before grouping
# [10] = 4R selection against MAL, rank after grouping
# [11] = 4R selection against MAL, rank before grouping
# [12] = P8_MAL: rank by count after grouping
# [13] = P8_MAL: rank by count before grouping
# [14] = P8_MAL pool: P8 T-Surf phage library
# T1 sequence (P58753 79-221): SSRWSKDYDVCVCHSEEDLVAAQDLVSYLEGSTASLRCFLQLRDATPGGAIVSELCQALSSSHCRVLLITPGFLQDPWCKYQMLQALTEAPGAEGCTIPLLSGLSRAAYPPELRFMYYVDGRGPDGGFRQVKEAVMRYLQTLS
sequence,measurement,setting,value
YAFTGHLRRYLLRRSV,Rank (after),[1],439
same,Rank (before),[2],1372
YAFTGHLRRYLVLRGV,P3_MAL Rank (after),[3],509
same,P3_MAL Rank (before),[4],1369
YAFTGHLRRYLVQRGV,Population,[5],0.00338%
YAFTGHLRRYMVQRGV,P3_MAL Rank (after),[3],517
same,P3_MAL Rank (before),[4],1370
YAFTGHLTGYLVQRGV,P3_MAL Rank (after),[6],220
same,P3_MAL Rank (before),[7],1438
YAFTGHPHRSLVQRGV,P3_MAL Rank (after),[6],271
same,P3_MAL Rank (before),[7],1446
YAFTGHPHRYLVQRGV,Population,[5],0.00564%
YAFTGHQHNYMVQRGV,Rank (after),[1],420
same,Rank (before),[2],1447
YAFTGHRHRYLVKRGV,Rank (after),[1],179
same,Rank (before),[2],1445
YAFTGHVDRYLVQRGV,P3_MAL Rank (after),[6],285
same,P3_MAL Rank (before),[7],1360
YAFTGHVHRYMVQRGV,P3_MAL Rank (after),[6],229
same,P3_MAL Rank (before),[7],1362
YAFTGHVPGYLVQRGV,P3_MAL Rank (after),[8],757
same,P3_MAL Rank (before),[9],1361
YAFTGPPHRYMVQRGV,Rank (after),[1],460
same,Rank (before),[2],1354
YAFTGYLHRYLVQRGG,Rank (after),[1],445
same,Rank (before),[2],1356
YAFTGYLHRYLVQRGV,Population,[5],0.00827%
YAFTGYLHRYVVQRGV,P3_MAL Rank (after),[3],519
same,P3_MAL Rank (before),[4],1355
YAFTRHLHRYLVHRGV,P3_MAL Rank (after),[8],714
same,P3_MAL Rank (before),[9],1466
YAFTRHLHRYLVQRAA,P3_MAL Rank (after),[3],553
same,P3_MAL Rank (before),[4],1465
YAFTRHLHRYLVQSGV,Rank (after),[1],147
same,Rank (before),[2],1468
YAFTSHLHHALRLNKIETF,P3_MAL Rank (after),[8],711
same,P3_MAL Rank (before),[9],1475
YAFTSHLHRSLVQRGV,P3_MAL Rank (after),[6],257
same,P3_MAL Rank (before),[7],1473
YAFTSHLHRYLVQRGV,Population,[5],0.00827%
YAFTSHLSRYLVQRGV,P3_MAL Rank (after),[6],223
same,P3_MAL Rank (before),[7],1476
YAFTSHLYDRLPAPQH,P3_MAL Rank (after),[3],554
same,P3_MAL Rank (before),[4],1469
YAFTSHLYDRLQRSGI,P3_MAL Rank (after),[10],606
same,P3_MAL Rank (before),[11],1470
YAFTSSLHRYLVQRGV,P3_MAL Rank (after),[10],592
same,P3_MAL Rank (before),[11],1481
YALPAICIVIWCSVA,Rank (after),[1],138
same,Rank (before),[2],516
YALTGQLHRYLVQRGV,Rank (after),[1],151
same,Rank (before),[2],1485
YFLHFLLCSRPETAYI,P8_MAL Rank (after),[6],199
same,P8_MAL Rank (before),[7],1496
YFLHFLLFNRPETNYI,P8_MAL Rank (after),[10],597
same,P8_MAL Rank (before),[11],1467
YFLHFLLFRRPENAYM,P8_MAL Rank (after),[6],268
same,P8_MAL Rank (before),[7],1461
YFLHFLLFSLPATEYI,P8_MAL Rank (after),[10],663
same,P8_MAL Rank (before),[11],1473
YFLHFLLFSLPENECI,P8_MAL Rank (after),[3],544
same,P8_MAL Rank (before),[4],1474
YFLHFLLFSLRKPSI,P8_MAL Rank (after),[6],197
same,P8_MAL Rank (before),[7],779
YFLHFLLFSRLDTVYI,Rank (after),[12],464
same,Rank (before),[13],1504
YFLHFLLFSRLETEYI,Population,[14],0.00278%
YFLHFLLFSRPEPAYI,Rank (after),[12],114
same,Rank (before),[13],1463
YFLHFLLFSRPETEYI,Rank (after),[1],386
same,Rank (before),[2],1336
YFLHFLLFSRPETVYI,Population,[14],0.00309%
YFLHFLLFSRPNRVY,Rank (after),[12],438
same,Rank (before),[13],1488
YFLHFLLFSRPQTQYI,Rank (after),[12],137
same,Rank (before),[13],1458
YFLHFLLLAVRKPSI,P8_MAL Rank (after),[6],196
same,P8_MAL Rank (before),[7],791
YFLHFLLVSRAEAEFI,P8_MAL Rank (after),[3],565
same,P8_MAL Rank (before),[4],1499
YFLHFLLYDHLRWLGIRAFL,P8_MAL Rank (after),[3],572
same,P8_MAL Rank (before),[4],1498
YFLHFMLFRRRGTEYI,Rank (after),[12],439
same,Rank (before),[13],1507
YFLHFRLLSRPETEYI,P8_MAL Rank (after),[10],643
same,P8_MAL Rank (before),[11],1505
YFLHLLLFSRPETEYN,P8_MAL Rank (after),[3],552
same,P8_MAL Rank (before),[4],1509
YFLHLLLFSRPETVYI,P8_MAL Rank (after),[10],615
same,P8_MAL Rank (before),[11],1508
YFLHSCCLAVRKPSI,Rank (after),[12],158
same,Rank (before),[13],1511
YFLHSLLISLTDPAYI,Rank (after),[12],452
same,Rank (before),[13],1510
YFLLFVLFGRSAIGSM,P8_MAL Rank (after),[8],713
same,P8_MAL Rank (before),[9],1459
YFLNFLLFSRPETDYI,Rank (after),[12],457
same,Rank (before),[13],1516
YFLQFLVFRRLGNEYV,P8_MAL Rank (after),[10],656
same,P8_MAL Rank (before),[11],1513
YFLQVRLFNLLESDDR,P8_MAL Rank (after),[10],600
same,P8_MAL Rank (before),[11],1514
YFWHALKNALAEHEKR,P3_MAL Rank (after),[10],674
same,P3_MAL Rank (before),[11],1334
YFWHALKNALAVNNDV,Population,[5],0.056%
same,Rank (after),[1],97
same,Rank (before),[2],97
YFWNALENALAVNNDV,Rank (after),[1],479
same,Rank (before),[2],1335
YLKLGYPWCWDRRRFA,P3_MAL Rank (after),[10],583
same,P3_MAL Rank (before),[11],1500
YLKWGYPGLWDRLRFA,P3_MAL Rank (after),[6],212
same,P3_MAL Rank (before),[7],1517
YLKWGYPWFWIVCVL,Rank (after),[12],143
same,Rank (before),[13],1546
YLKWGYTRCWDRLRFA,Rank (after),[1],478
same,Rank (before),[2],1518
YLLLSVFQTIFARRTE,P8_MAL Rank (after),[6],238
same,P8_MAL Rank (before),[7],800
YLNSGYPWRYDRLRFA,P3_MAL Rank (after),[8],750
same,P3_MAL Rank (before),[9],1498
YNFISHLHRYLVQRGV,P3_MAL Rank (after),[3],562
same,P3_MAL Rank (before),[4],1581
YNFISHLYAALQRKHVET,P3_MAL Rank (after),[6],253
same,P3_MAL Rank (before),[7],754
YNFISHLYDALHQFHSWV,Rank (after),[1],150
same,Rank (before),[2],523
YNFISHLYDTLHRNRN,P3_MAL Rank (after),[6],272
same,P3_MAL Rank (before),[7],1578
YNLISQLYEALHLNRI,P3_MAL Rank (after),[10],645
same,P3_MAL Rank (before),[11],1587
YQWRNALTAAANLRGW,P3_MAL Rank (after),[6],238
same,P3_MAL Rank (before),[7],1525
YQWRNALTAAANLSGW,Population,[5],0.00676%
YTALTKSGVHAFRDND,Rank (after),[1],475
same,Rank (before),[2],1552
YTALTNIGFHTFLDND,P3_MAL Rank (after),[6],195
same,P3_MAL Rank (before),[7],1542
YTALTNSASHTFRGND,Rank (after),[1],444
same,Rank (before),[2],1551
YTALTNSGFHAFSDKD,Rank (after),[12],456
same,Rank (before),[13],1556
YTALTNSGFHTFLDNE,P3_MAL Rank (after),[6],217
same,P3_MAL Rank (before),[7],1547
YVFTGNLHRYLMQLGV,P3_MAL Rank (after),[3],536
same,P3_MAL Rank (before),[4],1341
YVLHFLLFSRREPEYI,P8_MAL Rank (after),[3],487
same,P8_MAL Rank (before),[4],1524
